Tests used:
Experiment in all cases: pull-down with CCG-1423 Sepharose, immunoblot
Type in all cases: binding
Phactr1, Flag-Phactr1 = molecular target: T1, Phactr1, Flag-Phactr1 (Rattus norvegicus, UniProt P62024); conditions: immobilised CCG-1423 (photo-crosslinked to Sepharose); pH 7.5, 4°C, 2 h
T1 construct: N-terminal Flag tag, pCS2+; in vitro translated in wheat germ extract, anti-Flag purified
T1 sequence (P62024 1-580): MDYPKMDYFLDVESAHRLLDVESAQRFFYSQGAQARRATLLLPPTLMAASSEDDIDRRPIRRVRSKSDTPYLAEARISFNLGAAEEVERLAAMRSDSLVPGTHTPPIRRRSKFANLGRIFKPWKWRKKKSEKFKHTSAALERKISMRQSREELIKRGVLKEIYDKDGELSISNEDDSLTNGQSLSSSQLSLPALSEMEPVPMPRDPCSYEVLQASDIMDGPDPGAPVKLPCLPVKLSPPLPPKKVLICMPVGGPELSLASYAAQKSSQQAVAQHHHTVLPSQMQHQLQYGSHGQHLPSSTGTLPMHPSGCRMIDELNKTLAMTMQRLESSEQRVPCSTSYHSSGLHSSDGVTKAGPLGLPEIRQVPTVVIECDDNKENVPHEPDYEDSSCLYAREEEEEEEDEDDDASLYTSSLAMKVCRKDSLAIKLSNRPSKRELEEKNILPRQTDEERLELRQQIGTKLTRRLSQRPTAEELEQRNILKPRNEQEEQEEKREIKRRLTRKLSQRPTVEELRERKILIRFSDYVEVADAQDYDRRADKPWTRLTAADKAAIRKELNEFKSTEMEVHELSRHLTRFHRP

[1] = molecular target: T2, MRTF-A (MAL/MKL1), Flag-MRTF-A (Mus musculus, UniProt Q8K4J6); conditions: immobilised CCG-1423 (photo-crosslinked to Sepharose); pH 7.5, 4°C, 2 h
T2 construct: gene Mrtfa; N-terminal Flag tag, pCS2+; in vitro translated in wheat germ extract, anti-Flag purified
T2 sequence (Q8K4J6 1-964): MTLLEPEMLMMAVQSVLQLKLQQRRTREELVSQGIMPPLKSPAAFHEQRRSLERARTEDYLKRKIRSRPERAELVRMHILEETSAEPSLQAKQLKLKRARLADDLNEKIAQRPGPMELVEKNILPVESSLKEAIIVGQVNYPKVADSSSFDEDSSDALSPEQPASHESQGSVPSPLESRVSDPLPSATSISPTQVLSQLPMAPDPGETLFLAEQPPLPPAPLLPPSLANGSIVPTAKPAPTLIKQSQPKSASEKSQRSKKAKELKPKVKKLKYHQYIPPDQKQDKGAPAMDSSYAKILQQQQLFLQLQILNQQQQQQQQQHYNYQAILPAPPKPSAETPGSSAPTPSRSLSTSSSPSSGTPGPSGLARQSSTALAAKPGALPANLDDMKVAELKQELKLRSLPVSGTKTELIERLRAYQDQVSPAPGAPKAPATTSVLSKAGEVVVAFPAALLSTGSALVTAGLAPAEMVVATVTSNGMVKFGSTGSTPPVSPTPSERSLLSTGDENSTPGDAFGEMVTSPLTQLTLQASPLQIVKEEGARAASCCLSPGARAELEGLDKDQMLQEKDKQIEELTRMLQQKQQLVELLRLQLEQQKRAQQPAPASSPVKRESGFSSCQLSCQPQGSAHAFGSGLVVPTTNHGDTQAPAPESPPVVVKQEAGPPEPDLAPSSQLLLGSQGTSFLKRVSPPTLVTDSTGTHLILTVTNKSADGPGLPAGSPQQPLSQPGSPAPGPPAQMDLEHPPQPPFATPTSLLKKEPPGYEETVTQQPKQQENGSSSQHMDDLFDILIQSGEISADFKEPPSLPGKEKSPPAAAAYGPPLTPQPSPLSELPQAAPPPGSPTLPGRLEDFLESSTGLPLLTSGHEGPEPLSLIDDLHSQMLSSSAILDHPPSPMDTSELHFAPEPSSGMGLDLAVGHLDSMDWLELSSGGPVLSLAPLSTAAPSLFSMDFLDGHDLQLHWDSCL

[2] = molecular target: T3, MRTF-B (MAL16/MKL2), Flag-MRTF-B (Mus musculus, UniProt P59759); conditions: immobilised CCG-1423 (photo-crosslinked to Sepharose); pH 7.5, 4°C, 2 h
T3 construct: gene Mrtfb; N-terminal Flag tag, pCS2+; in vitro translated in wheat germ extract, anti-Flag purified
T3 sequence (P59759 1-1080): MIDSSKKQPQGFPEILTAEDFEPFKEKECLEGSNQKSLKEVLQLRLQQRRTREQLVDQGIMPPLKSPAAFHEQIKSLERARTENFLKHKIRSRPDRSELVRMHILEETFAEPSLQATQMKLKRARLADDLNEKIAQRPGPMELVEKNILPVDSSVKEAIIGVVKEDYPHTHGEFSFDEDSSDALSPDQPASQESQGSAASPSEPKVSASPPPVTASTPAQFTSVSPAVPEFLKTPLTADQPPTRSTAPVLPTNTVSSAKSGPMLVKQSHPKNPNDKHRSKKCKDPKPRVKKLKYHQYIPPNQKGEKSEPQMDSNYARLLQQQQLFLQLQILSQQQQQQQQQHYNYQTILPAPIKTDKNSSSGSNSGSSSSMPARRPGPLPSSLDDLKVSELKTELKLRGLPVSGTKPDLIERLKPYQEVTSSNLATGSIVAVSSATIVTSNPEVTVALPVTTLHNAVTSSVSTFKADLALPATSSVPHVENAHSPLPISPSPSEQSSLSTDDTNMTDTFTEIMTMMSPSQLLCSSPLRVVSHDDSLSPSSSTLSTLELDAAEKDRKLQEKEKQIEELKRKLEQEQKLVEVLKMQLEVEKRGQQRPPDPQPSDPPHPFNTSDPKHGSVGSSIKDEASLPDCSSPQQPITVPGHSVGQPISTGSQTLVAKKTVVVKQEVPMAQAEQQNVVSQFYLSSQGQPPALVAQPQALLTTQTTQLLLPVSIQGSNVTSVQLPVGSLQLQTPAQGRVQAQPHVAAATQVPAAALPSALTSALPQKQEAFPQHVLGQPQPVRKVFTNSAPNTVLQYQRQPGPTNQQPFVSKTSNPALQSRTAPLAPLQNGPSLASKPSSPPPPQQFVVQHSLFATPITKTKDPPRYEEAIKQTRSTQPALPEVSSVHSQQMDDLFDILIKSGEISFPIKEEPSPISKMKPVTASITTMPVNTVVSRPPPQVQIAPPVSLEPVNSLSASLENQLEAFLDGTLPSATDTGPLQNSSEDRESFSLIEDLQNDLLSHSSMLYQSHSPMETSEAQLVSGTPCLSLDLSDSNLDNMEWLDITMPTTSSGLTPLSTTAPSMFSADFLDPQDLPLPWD

[3] = molecular target: T3, MRTF-B (MAL16/MKL2), Flag-MRTF-B; conditions: immobilised CCG-1423 (photo-crosslinked to Sepharose); pH 7.5, 4°C, 2 h; remark: listed apart in the source
[4] = molecular target: T2, MRTF-A (MAL/MKL1), Flag-MRTF-A; conditions: immobilised CCG-1423 (photo-crosslinked to Sepharose) competed by 10 µM free CCG-1423; no G-actin; pH 7.5, 4°C, 2 h; site: N-terminal basic domain (NB)
[5] = molecular target: T4, Mycd (myocardin), Flag-Mycd (Mus musculus, UniProt Q8VIM5); conditions: immobilised CCG-1423 (photo-crosslinked to Sepharose); pH 7.5, 4°C, 2 h
T4 construct: gene Myocd; N-terminal Flag tag, pCS2+; in vitro translated in wheat germ extract, anti-Flag purified
T4 sequence (Q8VIM5 1-935): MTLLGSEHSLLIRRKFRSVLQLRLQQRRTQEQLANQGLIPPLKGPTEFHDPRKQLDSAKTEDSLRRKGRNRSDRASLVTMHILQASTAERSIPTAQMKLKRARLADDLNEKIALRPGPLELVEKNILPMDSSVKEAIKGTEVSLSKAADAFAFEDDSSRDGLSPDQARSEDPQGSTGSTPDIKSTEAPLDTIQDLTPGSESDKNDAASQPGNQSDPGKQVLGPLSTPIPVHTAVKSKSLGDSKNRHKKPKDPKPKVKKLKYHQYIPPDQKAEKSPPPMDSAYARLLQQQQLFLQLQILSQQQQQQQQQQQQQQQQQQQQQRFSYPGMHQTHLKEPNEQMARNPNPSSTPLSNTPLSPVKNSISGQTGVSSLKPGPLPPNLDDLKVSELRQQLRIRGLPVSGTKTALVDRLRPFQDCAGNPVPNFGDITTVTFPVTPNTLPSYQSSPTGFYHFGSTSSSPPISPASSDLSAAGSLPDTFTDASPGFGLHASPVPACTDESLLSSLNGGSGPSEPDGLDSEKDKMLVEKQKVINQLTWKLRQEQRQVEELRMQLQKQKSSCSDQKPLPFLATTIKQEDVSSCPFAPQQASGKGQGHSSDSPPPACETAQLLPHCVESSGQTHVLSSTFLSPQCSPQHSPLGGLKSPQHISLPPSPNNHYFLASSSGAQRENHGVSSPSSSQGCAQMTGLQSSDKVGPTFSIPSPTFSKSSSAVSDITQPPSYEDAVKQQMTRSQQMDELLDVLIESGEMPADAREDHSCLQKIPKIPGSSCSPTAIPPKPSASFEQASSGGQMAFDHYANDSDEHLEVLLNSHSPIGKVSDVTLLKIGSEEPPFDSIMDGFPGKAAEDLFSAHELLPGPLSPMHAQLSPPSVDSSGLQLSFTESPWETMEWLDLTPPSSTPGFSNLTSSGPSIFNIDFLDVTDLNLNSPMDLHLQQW

CC(ONC(=O)c1cc(C(F)(F)F)cc(C(F)(F)F)c1)C(=O)Nc1ccc(Cl)cc1 (stereo not drawn) [CCG-1423]
pull-down with CCG-1423 Sepharose, immunoblot (Phactr1, Flag-Phactr1): MRTF-B, Mycd, and Phactr1 bound to CCG-1423 Sepharose
% of wild-type binding [1]: 11.2±8.5%
pull-down with CCG-1423 Sepharose, immunoblot [2]: MRTF-B NBmut) to CCG-1423 Sepharose severely reduced
pull-down with CCG-1423 Sepharose, immunoblot [3]: MRTF-B, Mycd, and Phactr1 bound to CCG-1423 Sepharose
% of binding left with 10 μM free CCG-1423 [4]: 20.6±6.3%
pull-down with CCG-1423 Sepharose, immunoblot [5]: MRTF-B, Mycd, and Phactr1 bound to CCG-1423 Sepharose
